Reference: ChEMBL document CHEMBL1134895, “Synthesis and dopamine transporter binding affinities of 3alpha-benzyl-8-(diarylmethoxyethyl)-8-azabicyclo[3.2.1]octanes” (Bioorg Med Chem Lett, 2002)

Molecular target: Sodium-dependent dopamine transporter (Rattus norvegicus, UniProt P23977)
Assay: Displacement of [3H]WIN-35428 from dopamine transporter of rat caudate putamen tissue
Format: tissue-based

Sodium-dependent dopamine transporter, sequence (P23977 whole entry): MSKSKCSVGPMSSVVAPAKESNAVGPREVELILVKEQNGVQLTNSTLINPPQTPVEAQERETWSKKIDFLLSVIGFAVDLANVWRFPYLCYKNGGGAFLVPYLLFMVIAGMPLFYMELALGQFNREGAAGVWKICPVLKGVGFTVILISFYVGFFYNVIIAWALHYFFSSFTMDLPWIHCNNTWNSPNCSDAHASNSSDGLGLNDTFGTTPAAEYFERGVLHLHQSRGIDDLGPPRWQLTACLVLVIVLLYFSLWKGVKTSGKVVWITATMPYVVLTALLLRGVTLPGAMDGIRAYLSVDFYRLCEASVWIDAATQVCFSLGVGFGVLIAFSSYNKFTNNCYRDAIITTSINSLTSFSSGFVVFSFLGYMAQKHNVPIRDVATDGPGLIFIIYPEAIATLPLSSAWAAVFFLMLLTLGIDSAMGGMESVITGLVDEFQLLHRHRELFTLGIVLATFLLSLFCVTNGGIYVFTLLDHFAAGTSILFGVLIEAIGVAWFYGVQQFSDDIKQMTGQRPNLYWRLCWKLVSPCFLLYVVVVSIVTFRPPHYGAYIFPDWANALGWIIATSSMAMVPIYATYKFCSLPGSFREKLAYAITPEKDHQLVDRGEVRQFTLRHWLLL

SMILES | Ki [nM]
Clc1ccc(C(OCCN2C3CCC2CC(Cc2ccccc2)C3)c2ccccc2)cc1 (centres undefined) | 198
Fc1ccc(C(OCCC2CCN(CCCc3ccccc3)CC2)c2ccc(F)cc2)cc1 | 25
c1ccc(CC2CC3CCC(C2)N3CCOC(c2ccccc2)c2ccccc2)cc1 (centres undefined) | 98
c1ccc(CN2C3CCC2CC(CCOC(c2ccccc2)c2ccccc2)C3)cc1 (centres undefined) | 99
Fc1ccc(C(OCCN2C3CCC2CC(Cc2ccccc2)C3)c2ccc(F)cc2)cc1 (centres undefined) | 144
Cc1ccc(C(OCCN2C3CCC2CC(Cc2ccccc2)C3)c2ccc(C)cc2)cc1 (centres undefined) | 217
COc1ccc(C(OCCN2C3CCC2CC(Cc2ccccc2)C3)c2ccc(OC)cc2)cc1 (centres undefined) | 135
Fc1ccc(C(OCCN2CCC(CCCc3ccccc3)CC2)c2ccc(F)cc2)cc1 | 595
Clc1ccc(C(OCCN2C3CCC2CC(Cc2ccccc2)C3)c2ccc(Cl)cc2)cc1 (centres undefined) | 346
